Laboratory results from ChEMBL document CHEMBL1201862, “PubChem BioAssay data set” (2004).
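Grown in 96-well plates, cells were treated for 48 hours with each compound at five concentrations. Insufficient inhibition: endpoint recorded as highest concentration tested. At the GI50, growth is halved.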 Calls of active or inactive are those of the source. Cut-off read from the data, not from the text of the source: active = GI50 up to about 1.1 µM and inactive = higher.

How the values were obtained:
Assay in all cases: DTP human tumour cell line panel, 48 h
[1] = test system: DMS-114
[2] = test system: DMS-273
[3] = test system: KM-20L2
[4] = test system: M19-MEL
[5] = test system: XF498
[6] = test system: LXFL 529
[7] = test system: SNB-78
[8] = test system: DLD-1
[9] = test system: RXF 631

| SMILES | GI50 [1] | GI50 [2] | GI50 [3] | GI50 [4] | GI50 [5] | GI50 [6] | GI50 [7] | GI50 [8] | GI50 [9] |
| --- | --- | --- | --- | --- | --- | --- | --- | --- | --- |
| COc1ccc(OC)c2c1C(=O)C(Cl)=C(Cl)C2=O | 2.16 µM (inactive) | 7.57 µM (inactive) | 10.5 µM (inactive) | 4.68 µM (inactive) | 1.61 µM (inactive) | 1.95 µM (inactive) | 4.61 µM (inactive) | 3.84 µM (inactive) | – |
| CN(C)CCCNc1ccc2ncn3c4ccccc4c(=O)c1c23 | 10.5 µM (inactive) | – | 7.41 µM (inactive) | 12.1 µM (inactive) | – | 8.55 µM (inactive) | 14.2 µM (inactive) | 4.94 µM (inactive) | 4.7 µM (inactive) |
| CC(C)Cc1ccc(C(C)CC2=CCC(CN(C)C)C2=O)cc1 (stereo not drawn) | 4.27 µM (inactive) | 4.41 µM (inactive) | 11.4 µM (inactive) | 4.11 µM (inactive) | – | 1.73 µM (inactive) | 6.43 µM (inactive) | 2.33 µM (inactive) | 16.6 µM (inactive) |
| O=C(CCN1CCCCC1)N1CCc2c([nH]c3ccccc23)C1c1cccnc1 (stereo not drawn) | 27.9 µM (inactive) | 39.8 µM (inactive) | 30.1 µM (inactive) | 21.2 µM (inactive) | 21.2 µM (inactive) | 20.9 µM (inactive) | > 86.7 µM (inactive) | 48.4 µM (inactive) | 31 µM (inactive) |
| CC1=C(O)/C(=C/C(C)CCC/C(C)=C/C=C/C(C)CCCc2ccoc2)OC1=O (stereo not drawn) | 49.7 µM (inactive) | 55.3 µM (inactive) | 29.6 µM (inactive) | 48.3 µM (inactive) | 7.08 µM (inactive) | 31.8 µM (inactive) | 18.3 µM (inactive) | 31 µM (inactive) | – |
| Cc1ccc(/N=N/c2c(-c3ccccc3)nn(C(=O)CC(=O)Nc3ccc(Cl)cc3)c2-c2ccccc2)cc1 | 44.5 µM (inactive) | > 100 µM (inactive) | 63.4 µM (inactive) | – | – | 27.9 µM (inactive) | 79.6 µM (inactive) | 83.6 µM (inactive) | 59.4 µM (inactive) |
| O=C(c1ccccc1)c1cn(/N=C\c2ccccc2)c(=O)nc1-c1ccccc1 | > 100 µM (inactive) | – | > 100 µM (inactive) | > 100 µM (inactive) | – | > 100 µM (inactive) | > 100 µM (inactive) | > 100 µM (inactive) | – |
| CC1c2[nH]c3ccccc3c2CCN1O (stereo not drawn) | > 100 µM (inactive) | > 100 µM (inactive) | > 100 µM (inactive) | > 100 µM (inactive) | – | > 100 µM (inactive) | > 100 µM (inactive) | > 100 µM (inactive) | > 100 µM (inactive) |
| CSc1nc(NC2OCC(OC(C)=O)C(OC(C)=O)C2OC(C)=O)c2c(n1)OCC2=O (stereo not drawn) | > 100 µM (inactive) | > 100 µM (inactive) | > 100 µM (inactive) | > 100 µM (inactive) | – | > 100 µM (inactive) | > 100 µM (inactive) | > 100 µM (inactive) | – |
| C=C1CCC2C(C)(CO)C(O)CCC2(C)C1C/C=C1/CCOC1=O (stereo not drawn) | – | > 100 µM (inactive) | > 100 µM (inactive) | > 100 µM (inactive) | – | > 100 µM (inactive) | – | > 100 µM (inactive) | – |
| NC(=O)C12CCC1C1CCCCC12N1CCOCC1 (stereo not drawn) | – | – | > 100 µM (inactive) | > 100 µM (inactive) | – | > 100 µM (inactive) | > 100 µM (inactive) | > 100 µM (inactive) | > 100 µM (inactive) |
| NS(=O)(=O)c1ccc(NC(=O)Cc2nc3ccccc3s2)cc1 | 15.1 µM (inactive) | 18.7 µM (inactive) | 18.7 µM (inactive) | 14.6 µM (inactive) | 16.2 µM (inactive) | 16.8 µM (inactive) | 19.5 µM (inactive) | 15.5 µM (inactive) | 16.4 µM (inactive) |
| CC1(C)CC2(S(=O)(=O)c3ccccc3)ON1CC2S(=O)(=O)c1ccccc1 (stereo not drawn) | 67.1 µM (inactive) | 53.6 µM (inactive) | > 100 µM (inactive) | > 100 µM (inactive) | – | 76.9 µM (inactive) | – | > 100 µM (inactive) | – |
| COCc1cc2c(s1)C(=O)C1=C(C2=O)C2(C=C(Br)C(=O)C(Br)=C2)CCN1 | 1.73 µM (inactive) | 2.85 µM (inactive) | 0.184 µM (active) | 1.46 µM (inactive) | 7.41 µM (inactive) | 2.72 µM (inactive) | 7.59 µM (inactive) | 6.95 µM (inactive) | – |
| CCCCCCCCCCCCCCC(C)CCC(=O)O (stereo not drawn) | – | – | – | 47.2 µM (inactive) | 59.4 µM (inactive) | – | > 100 µM (inactive) | > 100 µM (inactive) | – |
| C/C(=N\NC(=S)NNC(=S)N(C)c1ccccc1)c1ccccn1 | 0.399 µM (active) | 1.46 µM (inactive) | – | 0.547 µM (active) | 14.1 µM (inactive) | 0.815 µM (active) | 8.55 µM (inactive) | 0.618 µM (active) | – |
